In article PMC9546217, “Exploring novel nitrofuranyl sulfonohydrazides as anti‐Leishmania and anti‐cancer agents: Synthesis, in vitro efficacy and hit identification” (Chemical Biology & Drug Design, 2022):
Read-outs that look alike come from different tables or passages of the source.

Experiments:
[1] = system: L. donovani strain 1S promastigotes; experiment: Antipromastigote assay (resazurin); format: cell-based; settings: L. donovani 1S, read-out: 1S IC50 ± SD, Promastigote
Description: (§1) The antipromastigote activity of synthesized compounds was evaluated as described previously by Mangwegape et al. ([2021]) using three strains of L. donovani (1S (MHOM/SD/62/1S) and 9515 (MHOM/IN/95/9515)) and L. major (IR‐173 [MHOM/IR/−173]). The assay method is available in the Supinfo S1.
(§2) The antipromastigote activity of synthesized compounds was evaluated using a modified, resazurin-based method of Kulshrestha et al. ^2 and Siqueira-Neto et al. ^3 and on three Leishmania strains. Leishmania donovani (strains 1S (MHOM/SD/62/1S) and 9515 (MHOM/IN/95/9515)) and L. major (strain IR-173 (MHOM/IR/-173)) promastigotes were cultured in M199 with Hank's salts and 0.68 mM L-glutamine (Sigma Aldrich) supplemented with 50 U/mL Penicillin/Streptomycin solution (Lonza), 4.2 mM sodium bicarbonate, 25 mM Hepes, 10% fetal bovine serum, 0.25% hemin, 0.1% biotin, and 10 mM adenine (Sigma Aldrich) and the pH adjusted to 7.3 – 7.4. The promastigotes were maintained at 25 °C.
(§3) Amphothericin B (10 μM) served as the standard drug and growth medium without parasites served as the blank. The plates were incubated for 48 hours at 25 °C in humidified atmosphere. After incubation, 50 μL of resazurin solution (0.01% in PBS) was added to each well and the plates were further incubated at 25 °C in the dark for 24 hours. Absorbance was measured at 570 nm and 600 nm using the Thermofisher Scientific GO Multiscan plate reader. Data analysis was performed for each biological replicate using SkanIt 4.0 Research Edition software. Background absorbance of resazurin (600 nm) was subtracted from the absorbance values of resorufin (570 nm). The mean absorbance calculated and the percentage growth inhibition and cell viability were determined by the following equations: […]
(§4) The IC50 and Z-score were determined for each compound’s three biological replicates using the cell viability % values and GraphPad Prism 5. The mean IC50 of the biological replicates with standard deviation (SD) served as the final IC50 of each compound.

[2] = system: L. donovani strain 9515 promastigotes; experiment: Antipromastigote assay (resazurin); format: cell-based; settings: L. donovani 9515, read-out: 9515 IC50 ± SD, Promastigote
Description: as §1, §2, §3, §4

[3] = system: L. major strain IR‐173 promastigotes; experiment: Antipromastigote assay (resazurin); format: cell-based; settings: L. major IR‐173, read-out: Antileishmanial activity, IC50 ± SD, Promastigote
Description: as §1, §2, §3, §4

[4] = system: Clone 15 HL‐60 promyelocytic leukemia cells; experiment: Anticancer assay (resazurin); format: cell-based, human; settings: for IC50: read-out: Anticancer activity, IC50 ± SD, Clone 15 HL‐60
Description: (§5) The anticancer activities of synthesized compounds were evaluated using a resazurin‐based assay (Czekanska, [2011]). Accordingly, a screening method similar to that of the cytotoxicity assay was used to screen for anticancer activity, using human melanoma (A375), promyelocytic leukemia (Clone 15 HL‐60), lung cancer (A549), and breast cancer (MCF7) cells. The culture and assay methods are provided in the Supinfo S1.
(§6) The potential anticancer activities of synthesized compounds were screened using the resazurin assay. ^5 Breast adenocarcinoma (MCF7, ATCC® HTB-22™) and human melanoma (A375, ATCC® CRL-1619™) cells were cultured in Hyclone Dulbecco's modified Eagle’s medium with high glucose (Separations) supplemented with 10 % fetal bovine serum (FBS) (Thermofisher Scientific) and 1 % L-glutamine, penicillin-streptomycin and non-essential amino acids (Lonza). Human lung carcinoma (A549, ATCC®, CCL-185™) cells were cultured in Ham’s F12K medium supplemented with 10% FBS and 1% L-glutamine, penicillin-streptomycin and non-essential amino acids. Human promyelocytic leukemia (Clone 15 HL-60, ATCC® CRL-1946™) cells were cultured in RPMI-1640 medium (Sigma Aldrich) supplemented with 10% FBS and 1% penicillin-streptomycin. The cell lines were maintained in a humidified atmosphere at 37 °C and 5% CO2.
(§7) For the resazurin assay, 96 well plates were prepared with 100 μL of 100 000 cells/mL MCF7 cell suspension, 100 μL of 50 000 cells/mL A375 cell suspension, 100 μL of 25 000 cells/mL A549 cell suspension, or 50 μL of 50 000 cells/mL HL-60 cell suspension. The MCF7, A375 and A549 cell plates were incubated for 24 hours to allow adherence of the cells to the plate surface, after which the growth medium is replaced with 100 μL medium containing compounds. […] The cell lines were treated with: (i) parthenolide (Sigma Aldrich) (positive control); (ii) growth medium and solvent (negative control to compensate for possible solvent effects); (iii) growth medium and experimental compound solutions. […] Blanks contained growth medium without cells. The treated plates were incubated for 48 hours.
(§8) To initiate the resazurin assay, 50 μL of sterile-filtered resazurin sodium salt (Sigma Aldrich) solution (0.01 % in PBS) was added and the plates incubated for 2 hours (MCF7, A375 and A549 cells) or 24 hours (HL-60 cells). Absorbance was measured at 570 and 600 nm using the Thermofisher Scientific GO Multiscan plate reader. Data analysis was performed for each biological replicate using SkanIt 4.0 Research Edition software. Further data analysis, calculations and IC50 determinations were identical to that of the antileishmanial and cytotoxicity assays.
(§9) For the final IC50 of each compound, the mean IC50 of the biological replicates were calculated with standard deviation (SD).

A375 melanoma cells = experiment: Anticancer assay (resazurin); format: cell-based, human; settings: n = 3, read-out: Anticancer activity, IC50 ± SD, A375
Description: as §5, §6, §7, §8, §9

[5] = system: L. donovani strain 1S amastigotes; experiment: Anti-amastigote assay (intramacrophage, THP-1 host, resazurin); format: cell-based; settings: L. donovani 1S, read-out: 1S IC50 ± SD, Amastigote
Description: (§10) The activities of synthesized compounds against the intramacrophage parasites of the three Leishmania strains were evaluated using a modified, resazurin‐based method (Jain et al., [2012]; Njanpa et al., [2021]). Suspension cultures of human acute monocytic leukemia (THP‐1) cells were maintained in RPMI‐1640 medium (Sigma Aldrich) supplemented with 10% FBS and 1% penicillin–streptomycin, at 37°C and 5% CO2 in a humidified atmosphere. Duplicate 96‐well plates (for respective anti‐amastigote and cytotoxicity assays) were seeded with 200 μl of a 2.5 × 10^5 cells/ml suspension treated with 25 ng/ml phorbol 12‐myristate 13‐acetate (PMA), followed by 48‐h incubation to promote differentiation into adherent macrophages.
(§11) For the anti‐amastigote assay, differentiated plates were carefully washed with PBS, followed by the addition of 200 μl of stationary phase promastigotes in RPMI 1640 medium with 2% FBS. An MOI of 30:1 was used for all three Leishmania strains. The parasite‐treated plates were incubated for 24 h at 32°C (L. major) or 37°C (L. donovani) and 5% CO2 to promote infection of the macrophages. […] Blanks were represented by growth medium without cells, as well as parasite‐free THP‐1 cells. The treated plates were incubated for 72 h.
(§12) After incubation, the plates were gently washed three times with PBS to remove any remaining extracellular parasites. The wells were then treated with 20 μl of 0.05% sodium dodecyl sulfate in PBS for 30 s to lyse the host macrophages. Lysis was terminated by adding 180 μl promastigote growth medium with 10% FBS. To initiate the resazurin assay, 10 μl of resazurin solution (0.025% in PBS) was added to all wells and the plates were incubated for 24 h at 32°C (L. major) or 37°C (L. donovani) and 5% CO2. Absorbance measurements, calculations, and IC50 determinations were performed as described for the antipromastigote assay (Supinfo S1).

[6] = system: L. donovani strain 9515 amastigotes; experiment: as above; format: cell-based; settings: L. donovani 9515, read-out: 9515 IC50 ± SD, Amastigote
Description: as §10, §11, §12

[7] = system: L. major strain IR‐173 amastigotes; experiment: as above; format: cell-based; settings: read-out: Antileishmanial activity, IC50 ± SD, Amastigote
Description: as §10, §11, §12

[8] = Leishmania major, THP-1, L. major IR‐173

Compound: O=[N+]([O-])c1ccc(/C=N/NS(=O)(=O)c2ccc(I)cc2)o1 [2a, (E)-4-Iodo-N'-[(5-nitrofuran-2-yl)methylene]benzenesulfonohydrazide]
- IC50 ([1]; Leishmania donovani): > 10 µM
- IC50 ([2]; Leishmania donovani): > 10 µM
- IC50 ([3]; Leishmania major): > 10 µM
- IC50 ([4]; Homo sapiens, HL-60, n = 3): > 10 µM
- IC50 (A375 melanoma cells; Homo sapiens, A-375): > 10 µM
- IC50 ([5]; Leishmania donovani, THP-1): > 10 µM
- IC50 ([6]; Leishmania donovani, THP-1): > 10 µM
- IC50 [7, 8]: > 10 µM

Compound: COC1(S(=O)(=O)NN)C=CC(c2ccccc2)=CC1 (stereo not shown) [1k, 4-Methoxy-(1,1'-biphenyl)-4-sulfonohydrazide]
- melting point: 173 to 175 °C

Compound: NNS(=O)(=O)C1(F)C=CC(c2ccccc2)=CC1 (stereo not shown) [1i, 4-Fluoro-(1,1'-biphenyl)-4-sulfonohydrazide]
- melting point: 164 to 169 °C

Compound: CC(=O)Nc1ccc(S(=O)(=O)N/N=C/c2ccc([N+](=O)[O-])o2)cc1 [2g, (E)-N-{4-{ {2-[(5-nitrofuran-2-yl)methylene]hydrazinyl}sulfonyl}phenyl}acetamide]
- IC50 ([1]; Leishmania donovani): > 10 µM
- IC50 ([3]; Leishmania major): > 10 µM
- IC50 (A375 melanoma cells; Homo sapiens, A-375): > 10 µM
- IC50 ([5]; Leishmania donovani, THP-1): > 10 µM
- IC50 [7, 8]: > 10 µM

Compound: (E)-4-Methoxy-N'-[(5-nitrofuran-2-yl)methylene]-(1,1'-biphenyl)-4-sulfonohydrazide [2k]
- IC50 [1]: > 10 µM
- IC50 [2]: > 10 µM
- IC50 [3]: > 10 µM
- IC50 ([4]; n = 3): > 10 µM
- IC50 (A375 melanoma cells): > 10 µM
- IC50 [5]: > 10 µM
- IC50 [6]: > 10 µM
- IC50 ([7]; L. major IR‐173): > 10 µM

Compound: CC(=O)Nc1ccc(S(=O)(=O)NN)cc1 [1 g, N-[4-(Hydrazinylsulfonyl)phenyl]acetamide]
- melting point: 175 to 178 °C

Compound: C=C1C(=O)O[C@H]2[C@H]1CC/C(C)=C/CC[C@@]1(C)O[C@@H]21 [PN, parthenolide, reference compound]
- IC50 ([4]; Homo sapiens, HL-60, n = 3): 1.85 ± 0.15 µM
- IC50 (A375 melanoma cells; Homo sapiens, A-375): 5.13 ± 0.81 µM

Compound: O=[N+]([O-])c1ccc(S(=O)(=O)N/N=C/c2ccc([N+](=O)[O-])o2)cc1 [2b, (E)-4-Nitro-N'-[(5-nitrofuran-2-yl)methylene]benzenesulfonohydrazide]
- IC50 ([1]; Leishmania donovani): > 10 µM
- IC50 ([2]; Leishmania donovani): > 10 µM
- IC50 ([3]; Leishmania major): > 10 µM
- IC50 ([4]; Homo sapiens, HL-60, n = 3): < 10 µM
- Preliminary screening, growth inhibition, Clone 15 HL‐60 ([4]; cutoff 50% growth inhibition at 10 μM): qualified
- IC50 ([4]; n = 3): 9.32 ± 0.9 µM
- IC50 (A375 melanoma cells; Homo sapiens, A-375): > 10 µM
- IC50 ([5]; Leishmania donovani, THP-1): > 10 µM
- IC50 ([6]; Leishmania donovani, THP-1): > 10 µM
- IC50 [7, 8]: > 10 µM

Compound: NNS(=O)(=O)c1ccc(-c2ccccc2)cc1 [1h, (1,1'-Biphenyl)-4-sulfonohydrazide]
- melting point: 180 to 183 °C

Compound: (E)-4-Chloro-N'-[(5-nitrofuran-2-yl)methylene]-(1,1'-biphenyl)-4-sulfonohydrazide [2j]
- IC50 [1]: > 10 µM
- IC50 [2]: > 10 µM
- IC50 [3]: > 10 µM
- IC50 ([4]; n = 3): > 10 µM
- IC50 (A375 melanoma cells): > 10 µM
- IC50 [5]: > 10 µM
- IC50 [6]: > 10 µM
- IC50 ([7]; L. major IR‐173): > 10 µM

Compound: NNS(=O)(=O)C1(Cl)C=CC(c2ccccc2)=CC1 (stereo not shown) [1j, 4-Chloro-(1,1'-biphenyl)-4-sulfonohydrazide]
- melting point: 150 to 153 °C

Compound: Cc1cc(C)c(S(=O)(=O)NN)c(C)c1 [1e, 2,4,6-Trimethylbenzenesulfonohydrazide]
- melting point: 110 to 113 °C

Compound: NNS(=O)(=O)c1cccc2c1OCCO2 [1l, 2,3-Dihydrobenzo[b][1,4]dioxine-5-sulfonohydrazide]
- melting point: 101 to 103 °C

Compound: NNS(=O)(=O)c1ccc(I)cc1 [1a, 4-Iodobenzenesulfonohydrazide]
- melting point: 160 to 162 °C

Compound: NNS(=O)(=O)c1ccc([N+](=O)[O-])cc1 [1b, 4-Nitrobenzenesulfonohydrazide]
- melting point: 149 to 152 °C

Compound: O=C1OCCN1/N=C/c1ccc([N+](=O)[O-])o1 [FZD, furazolidone, reference compound]
- IC50 ([1]; Leishmania donovani): 0.32 µM
- IC50 ([2]; Leishmania donovani): 0.28 ± 0.04 µM
- IC50 ([3]; Leishmania major): 0.34 ± 0.03 µM
- IC50 ([5]; Leishmania donovani, THP-1): 1.94 µM
- IC50 [7, 8]: 2.8 ± 0.5 µM
